Data set [1] addresses T1, α4β7 (adhesion of RPMI cells to CS-1) (Homo sapiens, UniProt P13612+P26010).
T1 construct: endogenous in cells
T1 sequence (P13612 34-1032): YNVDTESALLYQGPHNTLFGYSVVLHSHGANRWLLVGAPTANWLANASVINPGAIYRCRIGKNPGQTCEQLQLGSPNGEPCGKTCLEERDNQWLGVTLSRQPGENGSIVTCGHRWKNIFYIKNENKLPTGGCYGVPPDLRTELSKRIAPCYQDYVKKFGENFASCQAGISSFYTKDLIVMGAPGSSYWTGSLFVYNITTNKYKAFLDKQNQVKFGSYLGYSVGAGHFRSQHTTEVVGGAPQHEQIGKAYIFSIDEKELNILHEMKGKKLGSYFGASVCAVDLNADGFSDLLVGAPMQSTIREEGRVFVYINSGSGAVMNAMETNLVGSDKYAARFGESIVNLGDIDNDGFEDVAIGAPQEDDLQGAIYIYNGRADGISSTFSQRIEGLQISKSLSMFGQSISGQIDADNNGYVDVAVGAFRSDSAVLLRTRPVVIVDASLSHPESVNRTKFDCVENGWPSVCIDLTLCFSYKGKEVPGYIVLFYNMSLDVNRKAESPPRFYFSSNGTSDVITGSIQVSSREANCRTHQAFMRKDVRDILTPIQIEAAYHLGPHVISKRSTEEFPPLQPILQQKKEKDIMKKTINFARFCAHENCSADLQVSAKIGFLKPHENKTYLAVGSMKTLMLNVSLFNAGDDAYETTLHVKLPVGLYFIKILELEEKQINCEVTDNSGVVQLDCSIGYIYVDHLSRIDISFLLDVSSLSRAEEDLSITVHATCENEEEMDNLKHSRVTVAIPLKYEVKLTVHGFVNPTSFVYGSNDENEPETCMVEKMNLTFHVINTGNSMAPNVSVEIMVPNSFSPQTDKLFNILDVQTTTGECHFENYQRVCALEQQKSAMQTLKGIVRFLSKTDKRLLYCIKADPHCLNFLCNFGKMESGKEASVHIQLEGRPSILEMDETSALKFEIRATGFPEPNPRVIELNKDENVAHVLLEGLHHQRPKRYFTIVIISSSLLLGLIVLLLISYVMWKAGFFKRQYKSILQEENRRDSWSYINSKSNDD
T1 sequence (P26010 20-798): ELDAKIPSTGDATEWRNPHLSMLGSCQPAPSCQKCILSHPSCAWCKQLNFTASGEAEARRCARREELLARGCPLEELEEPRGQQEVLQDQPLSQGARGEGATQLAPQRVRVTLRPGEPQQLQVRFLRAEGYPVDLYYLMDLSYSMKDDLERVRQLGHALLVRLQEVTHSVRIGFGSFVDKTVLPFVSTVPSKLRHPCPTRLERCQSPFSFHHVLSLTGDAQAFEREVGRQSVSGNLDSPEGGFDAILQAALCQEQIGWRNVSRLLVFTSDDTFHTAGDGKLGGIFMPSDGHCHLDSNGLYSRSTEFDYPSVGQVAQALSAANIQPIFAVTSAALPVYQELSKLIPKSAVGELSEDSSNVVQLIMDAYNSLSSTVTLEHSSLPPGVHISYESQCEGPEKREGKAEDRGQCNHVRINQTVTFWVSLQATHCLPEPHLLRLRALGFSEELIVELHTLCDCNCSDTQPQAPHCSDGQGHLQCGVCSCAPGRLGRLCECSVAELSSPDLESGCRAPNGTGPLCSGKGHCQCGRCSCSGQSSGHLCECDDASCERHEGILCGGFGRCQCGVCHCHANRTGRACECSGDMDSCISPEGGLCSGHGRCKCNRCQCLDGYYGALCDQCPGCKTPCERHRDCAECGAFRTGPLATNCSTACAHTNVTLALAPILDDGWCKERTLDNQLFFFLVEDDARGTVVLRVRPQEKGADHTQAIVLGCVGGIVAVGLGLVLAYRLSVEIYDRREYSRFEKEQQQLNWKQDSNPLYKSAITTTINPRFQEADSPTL
In words: RPMI-CS-1 cell adhesion assay. It counts as cell-based. Particulars: adhesion of RPMI B-cell line (expresses α4β7) to CS-1 peptide coated microwells; read-out: RPMI-CS-1 IC50 value range.

Structures can show the parent of a compound that is named as a salt. A value given as a limit tells only on which side of the number the result lay.

Regarding `CNC(=S)Nc1cc(OC)c(-c2ccc(C[C@H](NC(=O)c3c(Cl)cccc3Cl)C(=O)O)cc2)c(OC)c1` [Example 162, N-(2,6-Dichlorobenzoyl)-4-[2,6-dimethoxy-4-(3-methylthioureido)phenyl]-L-phenylalanine], the melting point lay in the range of 197 to 198 °C. In addition, in data set [1], the 50% inhibitory concentration (IC50) was under 300 nM.

The compound `N#CCOc1cccc(OCC#N)c1-c1ccc(C[C@H](NC(=O)c2c(Cl)cccc2Cl)C(=O)O)cc1` [Example 231] registered a melting point of 175 to 176 °C. Besides, the 50% inhibitory concentration (IC50) in data set [1] is under 300 nM.

Compound `COc1ccc(O)c(OC)c1-c1ccc(C[C@H](NC(=O)c2c(Cl)cccc2Cl)C(=O)O)cc1` [Example 175, N-(2,6-Dichlorobenzoyl)-4-(2,6-dimethoxy-3-hydroxyphenyl)-L-phenylalanine] returned a melting point of 164 to 165 °C. Further, the half-inhibitory concentration (IC50) in data set [1] was under 300 nM.

In the case of `COc1cc(C(=O)NCc2ccccc2)cc(OC)c1-c1ccc(C[C@H](NC(=O)c2c(Cl)cccc2Cl)C(=O)O)cc1` [Example 167], the melting point fell in the range of 153 to 154 °C. Further, the IC50 in data set [1] is under 300 nM.

`COc1ccc2c(c1-c1ccc(C[C@H](NC(=O)c3c(Cl)cccc3Cl)C(=O)O)cc1)OCCO2` [Example 241, N-(2,6-Dichlorobenzoyl)-4-(2,3-ethylenedioxy-6-methoxyphenyl)-L-phenylalanine] gave a melting point of 218 °C. Besides, in data set [1], the IC50 is under 300 nM.

Turning to `COc1ccccc1-c1ccc(C[C@H](NC(=O)c2c(Cl)cccc2Cl)C(=O)O)cc1Cl` [Example 336, N-(2,6-Dichlorobenzoyl)-3-chloro-4-(2-methoxyphenyl)-L-phenylalanine], the melting point came out at 131 °C. Moreover, the IC50 in data set [1] was under 300 nM.

With `COC(=O)Nc1cc(OC)c(-c2ccc(C[C@H](NC(=O)c3c(Cl)cccc3Cl)C(=O)O)cc2)c(OC)c1` [Example 158, N-(2,6-Dichlorobenzoyl)-4-(4-methoxycarbonylamino-2,6-dimethoxyphenyl)-L-phenylalanine], the melting point is 235 to 236 °C. Besides, the IC50 in data set [1] is under 300 nM.

Regarding `COc1cccc(OC)c1-c1ccc(C[C@H](NC(=O)c2c(Cl)cc(-c3ccc[nH]3)cc2Cl)C(=O)O)cc1` [Example 303, N-[4-(2-Pyrrolyl)-2,6-dichlorobenzoyl]-4-(2,6-dimethoxyphenyl)-L-phenylalanine], the melting point was determined as 250 °C. Also, the IC50 in data set [1] was under 300 nM.

Take `C=CCNc1cc(OC)c(-c2ccc(C[C@H](NC(=O)c3c(Cl)cccc3Cl)C(=O)O)cc2)c(OC)c1` [Example 156, N-(2,6-Dichlorobenzoyl)-4-(4-allylamino-2,6-dimethoxyphenyl)-L-phenylalanine]: the melting point is 262 to 263 °C (dec.). Further, in data set [1], the IC50 was under 300 nM.

In turn, `COc1cc(C(=O)O)cc(OC)c1-c1ccc(C[C@H](NC(=O)c2c(Cl)cccc2Cl)C(=O)O)cc1` [Example 172, N-(2,6-Dichlorobenzoyl)-4-(4-carboxy-2,6-dimethoxyphenyl)-L-phenylalanine] showed a melting point of 277 to 278 °C. Besides, the IC50 in data set [1] is under 300 nM.

Consider `CCC(O)c1cc(C[C@H](NC(=O)c2c(Cl)cccc2Cl)C(=O)O)ccc1-c1ccccc1OC` (stereo partly shown) [Example 341], for which the melting point was in the range of 117 to 119 °C. The IC50 in data set [1] is under 300 nM.

On to `COc1ccccc1-c1ccc(C[C@H](NC(=O)C(C)c2c(Cl)cccc2Cl)C(=O)O)cc1` (stereo partly drawn) [Example 213, N-[2-(2,6-Dichlorophenyl)propionyl]-4-(2-methoxyphenyl)-L-phenylalanine], for which the melting point lay within 109 to 110 °C. Moreover, the IC50 in data set [1] lay within 1000 to 5000 nM.

In the case of `CS(=O)(=O)Nc1ccc(C(=O)N[C@@H](Cc2ccc(-c3ccccc3C(F)(F)F)cc2)C(=O)O)c(Cl)c1` [Example 335, N-[2-Chloro-4-(methansulfonylamino)benzoyl]-4-[2-(trifluoromethyl)phenyl]-L-phenylalanine], the melting point came to 114 °C. Moreover, the IC50 in data set [1] fell in the range of 300 to 1000 nM.

`COC(=O)Nc1cc(Cl)c(C(=O)N[C@@H](Cc2ccc(-c3c(OC)cccc3OC)cc2)C(=O)O)c(Cl)c1` [Example 201] gave a melting point of 147 to 149 °C. Besides, in data set [1], the IC50 is under 300 nM.

As for `COc1cc(C(F)(F)F)cc(OC)c1-c1ccc(C[C@H](NC(=O)c2c(Cl)cccc2Cl)C(=O)O)cc1` [Example 321, N-(2,6-Dichlorobenzoyl)-4-[2,6-dimethoxy-4-(trifluoromethyl)phenyl]-L-phenylalanine], the melting point was 231 to 232 °C. For the same compound, the IC50 in data set [1] was under 300 nM.

Take `COCOc1ccc(OC)c(-c2ccc(C[C@H](NC(=O)c3c(Cl)cccc3Cl)C(=O)O)cc2)c1OC` [Example 174, N-(2,6-Dichlorobenzoyl)-4-(2,6-dimethoxy-3-methoxymethoxyphenyl)-L-phenylalanine]: the melting point lay in the range of 156 to 157 °C. Moreover, the IC50 in data set [1] was under 300 nM.

In the case of `CCOC(=O)Nc1cc(Cl)c(C(=O)N[C@@H](Cc2ccc(-c3c(OC)cccc3OC)cc2)C(=O)O)c(Cl)c1` [Example 200], the melting point was 185 to 187 °C. For the same compound, in data set [1], the IC50 was under 300 nM.

`CCOC(=O)[C@H](Cc1ccc(-c2c(OC)cc(CN(C)C)cc2OC)cc1)NC(=O)c1c(Cl)cccc1Cl` (as salt: hydrochloride) [Example 259, N-(2,6-Dichlorobenzoyl)-4-[2,6-dimethoxy-4-[(N,N-dimethylamino)methyl]phenyl]-L-phenylalanine ethyl ester hydrochloride]: the melting point stood at 146.5 °C.

For the compound `Cc1noc(C)c1-c1ccc(C[C@H](NC(=O)c2c(Cl)cccc2Cl)C(=O)O)cc1` [Example 330, N-(2,6-Dichlorobenzoyl)-4-(3,5-dimethyl-4-isoxazolyl)-L-phenylalanine], the melting point came to 119 °C.

On to `CCOC(=O)[C@H](Cc1ccc(-c2c(OC)cc(CN3CCOCC3)cc2OC)cc1)NC(=O)c1c(Cl)cccc1Cl.Cl`, for which the melting point turned out to be 177.5 °C.

The compound `CCOC(=O)[C@H](Cc1ccc(-c2c(OC)cc(CN3CCN(C)CC3)cc2OC)cc1)NC(=O)c1c(F)cccc1F` (as salt: HCl) [Example 356] displayed a melting point of 226 °C.

As to `COc1ccccc1-c1ccc(C[C@H](NC(=O)c2ccc(N(C)S(C)(=O)=O)cc2Cl)C(=O)O)cc1`, the melting point amounted to 79.3 °C.

Regarding `COc1cc(CN2CCSCC2)cc(OC)c1-c1ccc(C[C@H](NC(=O)c2c(Cl)cccc2Cl)C(=O)O)cc1` [Example 253, N-(2,6-dichlorobenzoyl)-4-[2,6-dimethoxy-4-(thiomorpholinomethyl)phenyl]-L-phenylalanine], the melting point fell in the range of 86 to 89 °C.

For the compound `COc1cccc(O)c1-c1ccc(C[C@H](NC(=O)c2c(Cl)cccc2Cl)C(=O)O)cc1` [Example 359, N-(2,6-Dichlorobenzoyl)-4-(6-methoxy-2-hydroxyphenyl)-L-phenylalanine], the melting point is 224.4 °C.

`COc1cccc(OC)c1-c1ccc(C[C@H](NC(=O)c2c(Cl)cc(-c3ccn[nH]3)cc2Cl)C(=O)O)cc1` (as salt: TFA) [Example 304, N-[4-(5-Pyrazolyl)-2,6-dichlorobenzoyl)-4-(2,6-dimethoxyphenyl)-L-phenylalanine] registered a melting point of 156 °C.

`CNc1ccc(C(=O)N[C@@H](Cc2ccc(-c3ccccc3OC)cc2)C(=O)O)c(Cl)c1` gave a melting point of 82.8 °C.

For orientation: melting point means the temperature of the solid-liquid transition. As usually defined, the IC50 is the midpoint of a concentration-inhibition curve.

(Values after patent US6855843B2, “Inhibitors of α4 mediated cell adhesion” (Tanabe Seiyaku Co., Ltd., priority 1998, dated 2005).)
